From US6495065B1, “Nitrosamine-inhibiting compositions for shortstopping of free radical emulsion polymerizations” (Atofina Chemicals, Inc., priority 1999, dated 2002) come the findings set out here.

The nature of this series: Solubility in water.

For `CCN(O)CC` [DEHA, diethylhydroxylamine], the Solubility in water is on record as around 85 wt. %.
Regarding `CC(C)NO` [NiPHA, N-isopropylhydroxylamine], the Solubility in water is around 15 wt. %.
